Laboratory results from paper PMC6882468 (Journal of Enzyme Inhibition and Medicinal Chemistry, 2019).

What was measured:
p38α = tested on: p38α; design: method as in PMID 17664068; details: Figure 1; cited from earlier work
COX-2 = target: T1, COX-2 (Homo sapiens, UniProt P35354); assay: COX-2 inhibition assay in vitro (COX Inhibitor Screening Kit, fluorometric); details: for SI (COX-1/COX-2): IC50 (COX-1)/IC50 (COX-2)
T1 sequence (P35354 18-604): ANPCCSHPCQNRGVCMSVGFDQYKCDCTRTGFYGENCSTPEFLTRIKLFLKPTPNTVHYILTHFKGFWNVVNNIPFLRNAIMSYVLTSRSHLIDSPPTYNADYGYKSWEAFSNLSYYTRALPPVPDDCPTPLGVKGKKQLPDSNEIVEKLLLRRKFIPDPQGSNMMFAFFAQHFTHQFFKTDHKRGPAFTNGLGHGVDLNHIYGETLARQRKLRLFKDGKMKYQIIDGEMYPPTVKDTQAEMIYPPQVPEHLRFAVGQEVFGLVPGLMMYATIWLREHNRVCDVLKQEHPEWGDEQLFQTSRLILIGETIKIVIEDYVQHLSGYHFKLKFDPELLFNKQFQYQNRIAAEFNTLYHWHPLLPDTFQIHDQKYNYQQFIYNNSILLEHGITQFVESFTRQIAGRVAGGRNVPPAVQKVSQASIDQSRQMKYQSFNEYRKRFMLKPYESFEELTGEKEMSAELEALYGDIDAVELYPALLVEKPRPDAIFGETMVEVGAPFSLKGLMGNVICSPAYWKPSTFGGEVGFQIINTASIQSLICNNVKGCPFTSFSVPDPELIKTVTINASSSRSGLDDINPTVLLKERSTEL

COX-1 = target: T2, COX-1 (Ovis aries, UniProt P05979); assay: COX-1 inhibition assay in vitro (COX Inhibitor Screening Kit, fluorometric); format: biochemical
T2 construct: purchased BioVision, Inc
T2 sequence (P05979 25-600): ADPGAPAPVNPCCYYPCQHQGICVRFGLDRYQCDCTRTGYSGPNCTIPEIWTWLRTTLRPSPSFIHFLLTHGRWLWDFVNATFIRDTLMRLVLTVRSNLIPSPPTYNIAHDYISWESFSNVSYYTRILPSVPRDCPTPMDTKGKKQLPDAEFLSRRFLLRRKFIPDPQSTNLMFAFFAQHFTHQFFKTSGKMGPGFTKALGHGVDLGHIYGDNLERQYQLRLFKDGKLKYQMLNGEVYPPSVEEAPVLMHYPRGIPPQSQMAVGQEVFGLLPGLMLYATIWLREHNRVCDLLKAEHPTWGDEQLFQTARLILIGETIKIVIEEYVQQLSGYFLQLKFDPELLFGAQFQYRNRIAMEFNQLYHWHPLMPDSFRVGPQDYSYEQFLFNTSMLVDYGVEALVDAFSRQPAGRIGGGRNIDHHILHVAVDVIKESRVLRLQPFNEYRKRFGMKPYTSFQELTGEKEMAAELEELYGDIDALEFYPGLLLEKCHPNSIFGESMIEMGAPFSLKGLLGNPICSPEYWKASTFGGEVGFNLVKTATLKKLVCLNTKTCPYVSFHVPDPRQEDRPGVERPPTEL
Procedure: Simply, different concentrations of the test compound solution were added to the mixed solution containing COX-1/COX-2 enzyme (10 µL) and Assay Buffer (960 µL, 0.1 M Tris-HCl pH 8.0 containing 5 µM EDTA and 2 µM phenol). […] The IC50 values were calculated as described above.

p38α MAPK = p38α MAPK (Homo sapiens, UniProt Q16539); assay: p38α MAPK inhibition assay in vitro; format: biochemical; details: triplicate, read-out: IC50 p38p
Procedure: In brief, after mixing the enzyme reagent with the sample, a reaction mixture containing 200 µM biotin-peptide substrate and 600 µM ATP (+100 µCi/mL γ-^32 P-ATP) was added to initiate the reaction. […] Part of the reaction solution was transferred to the well of a streptavidin-coated flash plate, washed in PBS containing 0.01% Tween and sealed. The average value of counts per minute for each group and the IC50 value was calculated.
The average fluorescence values of each well were calculated and recorded as RFU (Relative Fluorescence Unit) blank control (RFU blank), RFU 100% enzyme activity control (RFU enzyme), RFU positive drug control (RFU drug) and RFU test compound (RFU compound). The inhibition rate is calculated according to the following formula. Inhibition rate (%)= (RFU (enzyme) – RFU (compound/drug) […]) /(RFU (enzyme) – RFU (blank)) * 100%
The IC50 value of the test compound was calculated by the concentration-inhibition reaction curve and the assays were performed in triplicate.

[1] = tested on: DNFB-induced mouse model of allergic contact dermatitis; assay: DNFB-induced mouse model of allergic contact dermatitis (ear swelling); format: in vivo, Male ICR mice; details: for Swelling degree / Inhibition (%) of ear swelling: mice, 5 mg/kg intragastric once a day for 6 days; for Swelling degree: ear slices weighed 24 h after DNFB challenge, Mean ± SD, n = 6; for Inhibition (%) of ear swelling: vs model group; for in vivo inhibitory activity, in words: p.o. 5 mg/kg, p < 0.01
Procedure: Male ICR mice (20 ± 2 g) were obtained from the Experimental Animal Centre of Anhui Medical University (Hefei, China). The mice reared in a pathogen-free setting (23 ± 2 °C, 55 ± 5% humidity) with free access to water and pelleted food throughout the experimental cycle. All experimental procedures performed in accordance with guide for the Care and Use of Laboratory Animals (National Research Council, 1996) and were approved by the Experimental Animal Ethics Committee of Anhui University of Chinese Medicine (Hefei, China). After 7 days acclimatisation, the mice were randomly divided into control group, ACD model group, dexamethasone positive control group and 20 compound groups, six in each group. The control group and the model group were given the same dose of the vehicle, the positive control group was given dexamethasone 0.5 mg/kg, and the test compound groups were given compound 5 mg/kg, all of which were given by intragastric administration and were administered once a day for 6 days. Except for the control group, the 50 µL of 1% DNFB (in acetone/olive oil 4:1) was administered to the stripped epidermis, and repeated the next day. After 6 days of drug treatment, 10 µL of 1% DNFB acetone olive oil solution was applied on both sides of the right ear to stimulate inflammation, and equivalent acetone olive oil solution was applied on the left ear for comparison. […] Calculation was carried out according to the following equations. Swelling degree (mg) = MR – ML Inhibitory rate of ear swelling (%)=((MR – ML) model – (MR – ML) treated)/(MR – ML) model ×100% MR=Average weight of the right ear slices;ML= Average weight of the left ear slices […] Dexamethasone (DEX) at a p.o. dose of 0.5 mg/kg was employed as the positive control. After the mice were sacrificed, the swelling degree and inhibition rate were calculated by weighing the same part of both ears.

Chain of p38α MAPK (Q16539 whole entry): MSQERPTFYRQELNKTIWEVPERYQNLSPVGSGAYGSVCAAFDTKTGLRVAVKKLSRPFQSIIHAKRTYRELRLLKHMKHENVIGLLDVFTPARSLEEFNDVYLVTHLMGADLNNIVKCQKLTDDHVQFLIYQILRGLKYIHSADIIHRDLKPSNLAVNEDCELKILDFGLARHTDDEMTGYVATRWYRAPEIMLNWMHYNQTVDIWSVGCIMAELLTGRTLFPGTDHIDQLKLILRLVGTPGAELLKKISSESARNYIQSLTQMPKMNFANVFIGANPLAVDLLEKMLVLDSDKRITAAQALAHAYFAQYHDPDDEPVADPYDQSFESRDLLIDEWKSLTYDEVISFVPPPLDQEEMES

IC50 (COX-2) [µM]	SI (COX-1/COX-2) (COX-2)	IC50 (COX-1) [µM]	IC50 (p38α MAPK) [µM]	SMILES	IC50 (p38α) [µM]	Swelling degree [1] [mg]	Inhibition (%) of ear swelling [1] [%]	in vivo inhibitory activity, in words [1]
–	–	–	–	COc1cc2[nH]ccc2cc1C(=O)N1CCN(Cc2ccccc2)CC1 [Compound 2]	0.95	–	–	–
0.842 ± 0.062	1.41	1.19 ± 0.08	3.41 ± 0.22	CC(=O)c1ccccc1C(=O)N1CCN(Cc2cccc([N+](=O)[O-])c2)CC1 [Compound 6f, 1–(2-(4–(3-Nitrobenzyl)piperazine-1-carbonyl)phenyl)ethan-1-one]	–	9.9 ± 2.9	39.6	significant inhibitory activity
0.022 ± 0.003	192.27	4.23 ± 0.23	8.49 ± 0.57	CC(=O)c1ccccc1C(=O)N1CCN(Cc2ccc(F)cc2)CC1 [Compound 6j, 1–(2-(4–(4-Fluorobenzyl)piperazine-1-carbonyl)phenyl)ethan-1-one]	–	10.4 ± 3.1	36.6	significant inhibitory activity
